Experimental data published in paper PMC3997423, “Identification and HLA-Tetramer-Validation of Human CD4^+ and CD8^+ T Cell Responses against HCMV Proteins IE1 and IE2” (PLoS ONE, 2014).
pKd: −log10 of the molar value. Where no end group is shown, it is not given here.

How the values were obtained:
[1] = molecular target: HLA-A*03:01 (Homo sapiens, UniProt P04439); assay: biochemical
Protocol: (§1) Peptide-HLA class I and II binding affinities were determined as previously described [44], [45].
(§2) Complex formation was detected using a proximity-based Luminescent Oxygen Channeling Immunoassay assay and the peptide concentration leading to half-saturation (ED50) was determined as previously described [44], [45]. Under the limited receptor concentrations used here, the ED50 reflects the affinity of the interaction.

[2] = molecular target: HLA-C*06:02 (Homo sapiens, UniProt P10321, A176E/A330V/C350S/L171W/L180W/L218V/M285V/M309V/M331V/N104K/P208H/Q277E/Q291P/R121W/S101N/S123Y/S297R/T329A/T363A/V319A/V328M); assay: Peptide-HLA class I binding affinity; settings: read-out: Measured affinity
Protocol: as §1, §2

[3] = molecular target: HLA-B*08:01 (Homo sapiens, UniProt P01889, A93T/A95T/D138N/E176V/E187T/K202T/Q94N/R180D/S35A/V36M/Y33D/Y91F); assay: biochemical
[4] = molecular target: HLA-DRB1*13:01 (Homo sapiens, UniProt P01903+P01911, A100E/A169T/K41T/L162R/M171V/P40S/Q125H/Q178H/Q39Y/Q99D/R42S/S66N/T262R/W38E/Y61H); assay: Peptide-HLA class II binding affinity; settings: read-out: measured affinity
Protocol: as §1, §2

[5] = molecular target: HLA-B*40:01 (Homo sapiens, UniProt P01889, A65T/A93T/A95T/D138N/D98Y/E176V/E69K/N87E/Q56L/Q94N/R180L/S121R/S35A/S48T/T167S/V36M/W171L/Y33H/Y91S); assay: Peptide-HLA class I binding affinity; settings: read-out: Measured affinity
Protocol: as §1, §2

[6] = test system: CD8^+ T cells; assay: Ex vivo peptide-HLA class I tetramer staining; assay type: cell-based, human; settings: peptide-C*07:02 tetramer, responding donors
Protocol: To tetramerize the resulting peptide-HLA class I monomers, Streptavidin-PE or Streptavidin-APC (Biolegend, San Diego, USA) was sequentially added over 60 min at a 1∶4 molar ratio of Streptavidin to peptide-HLA-I monomers. PBMCs were resuspended in 25 µl PE- and APC-conjugated tetramer and incubated for 20 min at RT followed by 30 min incubation with anti-CD3-Pacific blue, anti-CD4-APC/Cy7, and anti-CD8-PerCP antibody (Biolegend, San Diego, USA).

[7] = molecular target: HLA-A*68:01 (Homo sapiens, UniProt P04439, A269V/D185E/E176V/E277Q/E87N/F33Y/G231S/I121M/I166T/I218V/L180W/L300P/L318F/N151K/P208A/P217A/Q86R/R169H/T345S); assay: Peptide-HLA class I binding affinity; settings: read-out: Measured affinity
Protocol: as §1, §2

[8] = molecular target: HLA-DRB1*01:01 (Homo sapiens, UniProt P01903+P01911, A100R/D57E/F55L/F60I/F76Y/I96L/L162R/M171V/P40L/Q125E/R42F/V115G/Y59C); assay: Peptide-HLA class II binding affinity; settings: read-out: measured affinity
Protocol: as §1, §2

[9] = molecular target: HLA-DRB1*03:01 (Homo sapiens, UniProt P01903+P01911, A100K/A102G/A103R/A169T/F55Y/I96L/K41T/L162R/M171V/P40S/Q125H/Q178H/Q39Y/R42S/S66N/T106N/T262R/W38E/Y61H); assay: Peptide-HLA class II binding affinity; settings: recombinant HLA class II α- and β-chains refolded with graded peptide, 48 h, 18°C; LOCI; ED50; read-out: Measured affinity
Protocol: as §1, §2

[10] = molecular target: T1, HLA-DRB3*01:01 (Homo sapiens, UniProt P01903+P79483); assay: Peptide-HLA class II binding affinity; settings: recombinant HLA class II α- and β-chains refolded with graded peptide, 48 h, 18°C; LOCI; ED50; read-out: Measured affinity
T1 construct: made in house
Protocol: as §1, §2

[11] = molecular target: HLA-B*55:01 (Homo sapiens, UniProt P01889, A329T/C349S/D138N/D201E/E187T/E204Q/K202T/L119W/R155S/R180L/S121T/S35A/S48A/V127L/V306I/V36M/Y140L); assay: Peptide-HLA class I binding affinity; settings: read-out: Measured affinity
Protocol: as §1, §2

[12] = molecular target: HLA-DRB1*07:01 (Homo sapiens, UniProt P01903+P01911, A100R/A102G/A103Q/D57E/D86V/E43K/F76Y/K127E/L162R/M171V/P40G/Q125H/Q99D/R33Q/R42Y/R54Q/S133A/S66F/T210M/V115G/Y107V/Y59L/Y89S); assay: Peptide-HLA class II binding affinity; settings: read-out: measured affinity
Protocol: as §1, §2

[13] = molecular target: HLA-DRB1*15:01 (Homo sapiens, UniProt P01903+P01911); assay: Peptide-HLA class II binding affinity; settings: read-out: measured affinity
Protocol: as §1, §2

[14] = molecular target: HLA-B*13:02 (Homo sapiens, UniProt P01889, A65T/A93T/A95T/D138N/D201E/D98Y/E176V/E204Q/E69M/E70A/G107R/K202T/L105A/L119W/N104T/N87E/Q94N/R106L/R155S/R169L/R180L/S101N/S121T/S35A/S48T/V127L/V36M/Y140L/Y91S); assay: Peptide-HLA class I binding affinity; settings: read-out: Measured affinity
Protocol: as §1, §2

[15] = molecular target: HLA-A*01:01 (Homo sapiens, UniProt P04439, A114D/A174V/A182V/D101N/D185E/E176A/E190D/L180R/Q94H/R68K/S129P/T187R/V100A/V91M/W191G); assay: Peptide-HLA class I binding affinity; settings: read-out: Measured affinity
Protocol: as §1, §2

Sequence of HLA-DRB1*03:01 (P01903 26-254 limits assumed, other chains not shown): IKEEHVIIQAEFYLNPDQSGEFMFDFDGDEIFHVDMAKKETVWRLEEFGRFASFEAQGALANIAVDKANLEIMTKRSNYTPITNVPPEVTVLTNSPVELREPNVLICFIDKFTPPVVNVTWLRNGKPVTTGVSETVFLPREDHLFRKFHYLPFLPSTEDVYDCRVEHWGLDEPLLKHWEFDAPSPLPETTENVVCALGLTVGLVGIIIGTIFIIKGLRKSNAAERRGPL

Compound KLGGALQAK [IE1_184–192] has a pKd [1] of 6.67.

QIKVRVDM [IE1_88–95] was tested, and the pKd [2] was 8.52 and the pKd [3] was 6.24.

For VRHRIKEHMLKKYTQ [IE1_96–110], the pKd [4] was 8.70.

Work on KEVNSQLSL [IE1_42–50/IE2_42–50] yielded a pKd [5] of 7.60.

In the case of CRVLCCYVL [IE1_309–317], the “TMRI (%)” value [6] was 0.8–8.0%.

TTFLQTMLR [IE1_33–41/IE2_33–41] was tested, and the pKd [7] was 9.00.

`CSCC[C@H](NC(=O)[C@H](CC(C)C)NC(=O)[C@H](Cc1ccccc1)NC(=O)[C@@H]1CCCN1C(=O)[C@@H](NC(=O)[C@H](CO)NC(=O)[C@H](CC(C)C)NC(=O)[C@H](C)N)[C@@H](C)O)C(=O)N[C@@H](CCC(=O)O)C(=O)N[C@@H](Cc1c[nH]cn1)C(=O)N[C@H](C(=O)N[C@@H](CCSC)C(=O)N1CCC[C@H]1C(=O)N[C@H](C(=O)N[C@H](C(=O)O)[C@@H](C)O)C(C)C)[C@@H](C)O` [IE2_438–452] was tested, and the pKd [8] was 8.22.

Work on RIKEHMLKK [IE1_99–107] yielded a pKd [1] of 6.27.

With VRVDMVRHRIKEHML [IE1_91–105] the pKd [9] was 8.00, the pKd [10] was less than 5.30 and the pKd [4] was 8.70.

With FPKTTNGCSQA [IE1_221–231] the pKd [11] was 6.86.

In the case of FLMEHTMPVTHPPEV [IE2_443–457], the pKd [8] was 8.70.

With QIKVRVDMV [IE1_88–96] the pKd [3] was 6.00.

For `CC[C@H](C)[C@H](NC(=O)[C@H](CCCCN)NC(=O)[C@@H](NC(=O)[C@H](CCCNC(=N)N)NC(=O)CNC(=O)[C@H](CCCNC(=N)N)NC(=O)[C@H](CCCNC(=N)N)NC(=O)[C@@H](N)[C@@H](C)O)C(C)C)C(=O)N[C@@H](CC(=O)O)C(=O)N[C@@H](CCC(=O)O)C(=O)N[C@H](C(=O)N[C@@H](CO)C(=O)N[C@@H](CCCNC(=N)N)C(=O)N[C@@H](CCSC)C(=O)N[C@@H](Cc1ccccc1)C(=O)O)C(C)C` [IE2_356–370], the pKd [9] was 8.05 and the pKd [10] was 8.70.

`CC[C@H](C)[C@H](NC(=O)CNC(=O)[C@@H](N)CCCCN)C(=O)N[C@@H](CCC(N)=O)C(=O)N[C@H](C(=O)N[C@H](C(=O)N[C@@H](Cc1ccc(O)cc1)C(=O)N[C@H](C(=O)N[C@@H](CCCNC(=N)N)C(=O)N[C@@H](CC(N)=O)C(=O)N[C@@H](Cc1c[nH]cn1)C(=O)N[C@@H](CCC(=O)O)C(=O)N[C@H](C(=O)N[C@@H](CCCCN)C(=O)N[C@@H](CO)C(=O)O)C(C)C)[C@@H](C)O)[C@@H](C)CC)[C@@H](C)CC` [IE2_408–422] showed a pKd [12] of 7.28 and a pKd [13] of 7.35.

Compound YILGADPLRV [IE1_354-363] has a pKd [14] of 7.06.

VKQIKVRVDMVRHRI [IE1_86–100] was tested, and the pKd [9] was 8.40 and the pKd [10] was 6.96.

With TSDACMMTMY [IE1_290–299] the pKd [15] was 8.05.

Work on EEAIVAYTL [IE1_381–389] yielded a pKd [5] of 7.89.
